#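 Test compounds were applied to cells in 96-well plates for 48 hours at 5 doses. Here, GI50 denotes the concentration required for 50% inhibition of growth.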 Active and inactive are the calls of the source. Cut-off read from the data, not from the text of the source: active = GI50 up to about 1.1 µM and inactive = higher.
# Assays:
# Experiment in all cases: DTP human tumour cell line panel, 48 h
# DMS-114 = system: DMS-114
# A498 = system: A498
# SR = system: SR
# UO-31 = system: UO-31
# MOLT-4 = system: MOLT-4
# M14 = system: M14
# A549 = system: A549
# M19-MEL = system: M19-MEL
# HOP-62 = system: HOP-62
# HCT-15 = system: HCT-15
# RXF 393 = system: RXF 393
# HCC 2998 = system: HCC 2998
# 786-0 = system: 786-0
# SNB-75 = system: SNB-75
# HCT-116 = system: HCT-116
# HOP-92 = system: HOP-92
# SK-MEL-28 = system: SK-MEL-28
# SK-MEL-5 = system: SK-MEL-5
# IGROV-1 = system: IGROV-1
# UACC-257 = system: UACC-257
# SW-620 = system: SW-620
# SF-295 = system: SF-295
# Malme-3M = system: Malme-3M
# NCI-H23 = system: NCI-H23
# HT-29 = system: HT-29
# LOX IMVI = system: LOX IMVI
# NCI-H460 = system: NCI-H460
# ACHN = system: ACHN
# OVCAR-8 = system: OVCAR-8
# OVCAR-3 = system: OVCAR-3
# K562 = system: K562
# SNB-19 = system: SNB-19
# COLO 205 = system: COLO 205
# TK-10 = system: TK-10
# U-251 = system: U-251
# OVCAR-5 = system: OVCAR-5
# UACC-62 = system: UACC-62
# SNB-78 = system: SNB-78
# OVCAR-4 = system: OVCAR-4
# SK-MEL-2 = system: SK-MEL-2
# KM12 = system: KM12
# LXFL 529 = system: LXFL 529
# SK-OV-3 = system: SK-OV-3
# SF-539 = system: SF-539
# EKVX = system: EKVX
# NCI-H226 = system: NCI-H226
# RPMI-8226 = system: RPMI-8226
# KM-20L2 = system: KM-20L2
# DLD-1 = system: DLD-1
# SN12C = system: SN12C
# XF498 = system: XF498
# CAKI-1 = system: CAKI-1
# NCI-H522 = system: NCI-H522
# DMS-273 = system: DMS-273
# HL-60 = system: HL-60
# HOP-18 = system: HOP-18
# CCRF-CEM = system: CCRF-CEM
# SF-268 = system: SF-268
smiles,measurement,setting,value
c1cncc(C2c3[nH]c4ccccc4c3CCN2CCCN2CCCCC2)c1 (centres undefined),GI50,DMS-114,> 100 µM (inactive)
same,GI50,A498,> 100 µM (inactive)
same,GI50,SR,> 100 µM (inactive)
same,GI50,UO-31,81.1 µM (inactive)
same,GI50,MOLT-4,> 100 µM (inactive)
same,GI50,M14,18.6 µM (inactive)
same,GI50,A549,> 100 µM (inactive)
same,GI50,M19-MEL,> 100 µM (inactive)
same,GI50,HOP-62,> 100 µM (inactive)
same,GI50,HCT-15,> 100 µM
same,GI50,RXF 393,53.6 µM (inactive)
same,GI50,HCC 2998,> 100 µM (inactive)
same,GI50,786-0,> 100 µM (inactive)
same,GI50,SNB-75,> 100 µM (inactive)
same,GI50,HCT-116,> 100 µM (inactive)
same,GI50,HOP-92,> 100 µM (inactive)
same,GI50,SK-MEL-28,20.3 µM (inactive)
same,GI50,SK-MEL-5,37.2 µM (inactive)
same,GI50,IGROV-1,> 100 µM (inactive)
same,GI50,UACC-257,60.7 µM (inactive)
same,GI50,SW-620,> 100 µM (inactive)
same,GI50,SF-295,> 100 µM (inactive)
same,GI50,Malme-3M,29.7 µM (inactive)
same,GI50,NCI-H23,> 100 µM (inactive)
same,GI50,HT-29,> 100 µM (inactive)
same,GI50,LOX IMVI,> 100 µM (inactive)
same,GI50,NCI-H460,> 100 µM (inactive)
same,GI50,ACHN,> 100 µM (inactive)
same,GI50,OVCAR-8,> 100 µM (inactive)
same,GI50,OVCAR-3,51.1 µM (inactive)
same,GI50,K562,> 100 µM (inactive)
same,GI50,SNB-19,> 100 µM (inactive)
same,GI50,COLO 205,84.3 µM (inactive)
same,GI50,TK-10,> 100 µM (inactive)
same,GI50,U-251,> 100 µM (inactive)
same,GI50,OVCAR-5,> 100 µM (inactive)
same,GI50,UACC-62,92.9 µM (inactive)
same,GI50,SNB-78,> 100 µM (inactive)
same,GI50,OVCAR-4,> 100 µM (inactive)
same,GI50,SK-MEL-2,> 100 µM (inactive)
same,GI50,KM12,> 100 µM (inactive)
same,GI50,LXFL 529,68.7 µM (inactive)
same,GI50,SK-OV-3,> 100 µM (inactive)
same,GI50,SF-539,> 100 µM (inactive)
same,GI50,EKVX,> 100 µM (inactive)
same,GI50,NCI-H226,> 100 µM (inactive)
same,GI50,RPMI-8226,> 100 µM (inactive)
same,GI50,KM-20L2,> 100 µM (inactive)
same,GI50,DLD-1,> 100 µM (inactive)
same,GI50,SN12C,> 100 µM (inactive)
same,GI50,XF498,57.4 µM (inactive)
same,GI50,CAKI-1,> 100 µM (inactive)
same,GI50,NCI-H522,> 100 µM (inactive)
same,GI50,DMS-273,> 100 µM (inactive)
same,GI50,HL-60,> 100 µM (inactive)
Cc1c(N)c(C#N)c2n(C)c3ncccc3n2c1=O,GI50,SR,> 100 µM (inactive)
same,GI50,UO-31,> 100 µM (inactive)
same,GI50,HOP-18,> 100 µM (inactive)
same,GI50,MOLT-4,> 100 µM (inactive)
same,GI50,M14,> 100 µM (inactive)
same,GI50,A549,> 100 µM (inactive)
same,GI50,M19-MEL,> 100 µM (inactive)
same,GI50,HOP-62,> 100 µM (inactive)
same,GI50,HCT-15,> 100 µM
same,GI50,RXF 393,> 100 µM (inactive)
same,GI50,HCC 2998,> 100 µM (inactive)
same,GI50,786-0,> 100 µM (inactive)
same,GI50,SNB-75,> 100 µM (inactive)
same,GI50,HCT-116,> 100 µM (inactive)
same,GI50,HOP-92,> 100 µM (inactive)
same,GI50,SK-MEL-28,> 100 µM (inactive)
same,GI50,SK-MEL-5,> 100 µM (inactive)
same,GI50,UACC-257,> 100 µM (inactive)
same,GI50,SW-620,> 100 µM (inactive)
same,GI50,SF-295,> 100 µM (inactive)
same,GI50,CCRF-CEM,> 100 µM (inactive)
same,GI50,Malme-3M,> 100 µM (inactive)
same,GI50,NCI-H23,> 100 µM (inactive)
same,GI50,HT-29,> 100 µM (inactive)
same,GI50,LOX IMVI,> 100 µM (inactive)
same,GI50,NCI-H460,> 100 µM (inactive)
same,GI50,ACHN,> 100 µM (inactive)
same,GI50,OVCAR-8,> 100 µM (inactive)
same,GI50,OVCAR-3,> 100 µM (inactive)
same,GI50,K562,> 100 µM (inactive)
same,GI50,SNB-19,> 100 µM (inactive)
same,GI50,COLO 205,> 100 µM (inactive)
same,GI50,TK-10,> 100 µM (inactive)
same,GI50,U-251,> 100 µM (inactive)
same,GI50,UACC-62,> 100 µM (inactive)
same,GI50,SNB-78,> 100 µM (inactive)
same,GI50,OVCAR-4,> 100 µM (inactive)
same,GI50,SK-MEL-2,> 100 µM (inactive)
same,GI50,KM12,> 100 µM (inactive)
same,GI50,LXFL 529,> 100 µM (inactive)
same,GI50,SK-OV-3,> 100 µM (inactive)
same,GI50,SF-539,> 100 µM (inactive)
same,GI50,EKVX,> 100 µM (inactive)
same,GI50,NCI-H226,> 100 µM (inactive)
same,GI50,RPMI-8226,> 100 µM (inactive)
same,GI50,KM-20L2,> 100 µM (inactive)
same,GI50,DLD-1,> 100 µM (inactive)
same,GI50,SN12C,> 100 µM (inactive)
same,GI50,XF498,> 100 µM (inactive)
same,GI50,CAKI-1,> 100 µM (inactive)
same,GI50,NCI-H522,> 100 µM (inactive)
same,GI50,SF-268,> 100 µM (inactive)
same,GI50,DMS-273,> 100 µM (inactive)
same,GI50,HL-60,> 100 µM (inactive)
